Source: article PMC10367051, “Comprehensive Mechanistic View of the Hydrolysis of Oxadiazole-Based Inhibitors by Histone Deacetylase 6 (HDAC6)” (ACS Chemical Biology, 2023)
Changes are numbered by the printed parent chain.

Tests used:
[1] = target: T1, zHDAC6 (WT) (Danio rerio, UniProt F8W4B7); assay: Inhibition assay, zebrafish HDAC6 catalytic DD2 domain, wild type; type: biochemical
T1 construct: Danio rerio HDAC6 (amino acids 440–798; zHDAC6); His (N, cleaved yes); MBP (N, cleaved yes); made in house; host or cells: RIPL Escherichia coli
T1 sequence (F8W4B7 440-798): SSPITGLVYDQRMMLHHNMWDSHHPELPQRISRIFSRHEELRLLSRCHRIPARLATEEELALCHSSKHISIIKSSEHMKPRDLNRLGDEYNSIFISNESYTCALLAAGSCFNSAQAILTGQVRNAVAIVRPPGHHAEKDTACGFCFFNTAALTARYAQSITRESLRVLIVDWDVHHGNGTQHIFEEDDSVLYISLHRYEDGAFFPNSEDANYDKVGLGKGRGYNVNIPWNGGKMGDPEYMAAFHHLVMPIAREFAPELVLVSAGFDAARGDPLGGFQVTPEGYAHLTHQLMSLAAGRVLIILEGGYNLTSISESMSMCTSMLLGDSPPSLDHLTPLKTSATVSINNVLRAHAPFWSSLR
Experimental: (§1) The second catalytic domain of Danio rerio HDAC6 (amino acids 440–798; zHDAC6) was expressed in RIPL Escherichia coli as described previously using the pEC566-zHDAC6 expression vector.[16],[38] Briefly, bacteria were incubated at 37 °C with shaking (250 rpm) until the optical density reached an OD600 = 0.5. Then, the culture was cooled to 18 °C for 1 h, and recombinant protein expression was induced by the addition of 75 μM isopropyl β-D-1-thiogalactopyranoside together with 200 μM ZnSO4. The culture was grown at 18 °C for an additional 18 h and harvested by centrifugation at 5500g for 15 min. The cell pellet was resuspended in the lysis buffer (50 mM phosphate, 300 mM NaCl, 10% glycerol, and 20 mM imidazole at pH 8; 5 mL g^–1 bacterial pellet) and lysed by three passages through EmulsiFlex (Avestin). Cell lysates were centrifuged (15,000g at 4 °C for 20 min), and the fusion protein in the supernatant was purified via Ni-NTA chromatography. […] The purity of protein preparations was monitored by SDS-PAGE (Figure S2).
Optimized fluorometric assays were used to determine inhibition constants of studied compounds against individual HDAC isoforms as described previously.[32] […] Deacetylation reactions were monitored either by high-performance liquid chromatography (HPLC) (HDAC10) or by quantification of released AMC (λex/λem = 365/440 nm) using a CLARIOstar plate reader (BMG Labtech GmbH).

[2] = target: T2, wild-type zHDAC6 (Danio rerio, UniProt F8W4B7); assay: Inhibitor hydrolysis in vitro by purified wild-type HDAC6 (LC-MS/MS); type: biochemical; details: 20 μM 8, 2 μM zHDAC6, 30 °C
T2 construct: Danio rerio HDAC6 (amino acids 440–798; zHDAC6); His (N, cleaved yes); MBP (N, cleaved yes); made in house; host or cells: RIPL Escherichia coli
T2 sequence (F8W4B7 440-798): T1 sequence (F8W4B7 440-798)
Experimental: as §1, with “min.” for “min. The cell pellet was resuspended in the lysis buffer (50 mM phosphate, 300 mM NaCl, 10% glycerol, and 20 mM imidazole at pH 8; 5 mL g^–1 bacterial pellet) and lysed by three passages through EmulsiFlex (Avestin). Cell lysates were centrifuged (15,000g at 4 °C for 20 min), and the fusion protein in the supernatant was purified via Ni-NTA chromatography.”
Mass spectrometry quantification of inhibitors/reaction products was carried out with a Shimadzu LCMS-8040 instrument (Shimadzu, HPLC Prominence system). […] Multiple reaction monitoring (MRM) parameters were optimized for each analyte, and corresponding major CID fragments were used for quantification. Analytes were quantified using corresponding calibration curves generated from pure compounds dissolved in water.
[…] Four microliter aliquots of reaction mixtures were injected into the system directly from the 96-well plate, and inhibitors/reaction products were quantitated as described above.

[3] = target: T3, HDAC6(H574A) mutant (Danio rerio, UniProt F8W4B7, H574A); assay: Inhibitor hydrolysis in vitro by HDAC6(H574A) mutant (LC-MS/MS); type: biochemical; details: 20 μM compound, 2 μM enzyme, 30 °C
T3 construct: Danio rerio HDAC6 (amino acids 440–798; zHDAC6); His (N, cleaved yes); MBP (N, cleaved yes); made in house; host or cells: RIPL Escherichia coli
T3 sequence (F8W4B7 440-798 H574A): T1 sequence (F8W4B7 440-798) with H135A
Experimental: The zHDAC6 mutants (Y745F and H574A) were constructed using the Quick-change site-directed mutagenesis protocol with the pEC566-zHDAC6 expression plasmid as a template. Both mutants were expressed and purified as described above for wild-type zHDAC6 (Figure S2).
(§2) Mass spectrometry quantification of inhibitors/reaction products was carried out with a Shimadzu LCMS-8040 instrument (Shimadzu, HPLC Prominence system). Analytes were separated on a Kinetex XB-C18 2.6 μm, 100 Å column (50 × 2.1 mm; Phenomenex) in a linear 15–60% CH3CN/H2O gradient containing 0.1% formic acid at a flow rate of 0.8 mL min^–1 over 4 min. Multiple reaction monitoring (MRM) parameters were optimized for each analyte, and corresponding major CID fragments were used for quantification. Analytes were quantified using corresponding calibration curves generated from pure compounds dissolved in water.
[…] […] Four microliter aliquots of reaction mixtures were injected into the system directly from the 96-well plate, and inhibitors/reaction products were quantitated as described above.

[4] = tested on: HEK293T cell lysates; assay: Inhibitor hydrolysis in HEK293T cell lysates (LC-MS/MS); type: in vitro ADME; details: 20 μM 8, 2.5 mg mL^–1 protein, 37 °C
Experimental: as §2
HEK293T cells and the HEK293T cell line stably transfected with human HDAC6 were grown in FreeStyle 293 medium supplemented with 1% FBS. Cells were harvested by centrifugation at 500g for 5 min, and cell pellets were resuspended in the lysis buffer (50 mM HEPES, 140 mM NaCl, 10 mM KCl, and 0.5% NP-40 at pH 7.4). Following short sonication (3 × 5 s), the cell lysates were centrifuged at 20,000g for 10 min, supernatants were transferred to fresh tubes, and the total protein concentration was adjusted to 4 mg mL^–1 by the addition of the lysis buffer. […] Following 15 min incubation on ice, stopped reactions were centrifuged at 20,000g for 10 min, and supernatants were analyzed by LC–MS as described above.

Row | IC50 [1] [µM] | SMILES | time of near-complete depletion of the inhibitor [2] | time to full hydrolysis of the inhibitor [2] [min] | hydrolysis by the HDAC6(H574A) mutant [3] | hydrolysis in HEK293T cell lysate [4]
1 | 3.87 ± 1.64 | CS(=O)(=O)N(Cc1ccc(C(=O)NN)cn1)c1cccc(Cl)c1 [compound 4] | – | – | – | –
2 | 41.7 | CS(=O)(=O)N(Cc1ccc(C(=O)NNC(=O)C(F)F)cn1)c1cccc(Cl)c1 [compound 6] | – | – | – | –
3 | – | CS(=O)(=O)N(Cc1ccc(-c2nnc(C(F)F)o2)cn1)c1cccc(Cl)c1 [compound 8] | approximately 120 min | < 180 | no hydrolysis was observed | hydrolyzed 8 to 6 and 4
